Results as given in the supplement of paper PMC10307832.

Tests used:
Assay in all cases: relative viability (nuclei count vs DMSO), 5 days (fraction); higher = more cells survive
BI-D1870 + Decitabine = compound: CC(C)CCN1c2nc(Nc3cc(F)c(O)c(F)c3)ncc2N(C)C(=O)C1C [BI-D1870] + Nc1ncn([C@H]2C[C@H](O)[C@@H](CO)O2)c(=O)n1 [Decitabine] (partner 2 µM)
In short: (§1)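 Relative viability divides the nuclei count in treated wells by that in vehicle wells. Lung cancer cell lines were seeded in 1536-well plates, dosed by pin tool the next day, and fixed and stained after 5 days in one step with final 0.05% Triton X-100, 1% formaldehyde and 1 ug/ml Hoechst. Dosing was a single drug or a fixed anchor-drug dose plus five library-drug doses (not always all listed) in √10 steps, and values are medians of duplicate plates imaged at 4×.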

Zebularine + AZD7762 = compound: O=c1ncccn1[C@@H]1O[C@H](CO)[C@@H](O)[C@H]1O [Zebularine] + NC(=O)Nc1cc(-c2cccc(F)c2)sc1C(=O)N[C@H]1CCCNC1 [AZD7762] (partner 0.2 µM)
In short: as §1

Zebularine + Trametinib = compound: O=c1ncccn1[C@@H]1O[C@H](CO)[C@@H](O)[C@H]1O [Zebularine] + CC(=O)Nc1cccc(-n2c(=O)n(C3CC3)c(=O)c3c(Nc4ccc(I)cc4F)n(C)c(=O)c(C)c32)c1 [Trametinib] (partner 0.02 µM)
In short: as §1

BI-D1870 + Pictilisib = compound: CC(C)CCN1c2nc(Nc3cc(F)c(O)c(F)c3)ncc2N(C)C(=O)C1C [BI-D1870] + CS(=O)(=O)N1CCN(Cc2cc3nc(-c4cccc5[nH]ncc45)nc(N4CCOCC4)c3s2)CC1 [Pictilisib] (partner 1 µM)
In short: as §1

Cell Line	relative viability (BI-D1870 + Decitabine; first compound 0.04 µM)	relative viability (BI-D1870 + Decitabine; first compound 0.1265 µM)	relative viability (BI-D1870 + Decitabine; first compound 0.4 µM)	relative viability (BI-D1870 + Decitabine; first compound 1.265 µM)	relative viability (BI-D1870 + Decitabine; first compound 4 µM)	relative viability (Zebularine + AZD7762; first compound 1 µM)	relative viability (Zebularine + AZD7762; first compound 3.162 µM)	relative viability (Zebularine + AZD7762; first compound 10 µM)	relative viability (Zebularine + AZD7762; first compound 31.62 µM)	relative viability (Zebularine + AZD7762; first compound 100 µM)	relative viability (Zebularine + Trametinib; first compound 1 µM)	relative viability (Zebularine + Trametinib; first compound 3.162 µM)	relative viability (Zebularine + Trametinib; first compound 10 µM)	relative viability (Zebularine + Trametinib; first compound 31.62 µM)	relative viability (Zebularine + Trametinib; first compound 100 µM)	relative viability (BI-D1870 + Pictilisib; first compound 0.04 µM)	relative viability (BI-D1870 + Pictilisib; first compound 0.1265 µM)	relative viability (BI-D1870 + Pictilisib; first compound 0.4 µM)	relative viability (BI-D1870 + Pictilisib; first compound 1.265 µM)	relative viability (BI-D1870 + Pictilisib; first compound 4 µM)
HCC-366	0.337	0.306	0.322	0.469	0.414	0.336	0.264	0.219	0.463	0.162	0.425	0.402	0.274	0.313	0.0973	0.157	0.159	0.0753	0.136	0.174
HCC-827	0.333	0.322	0.306	0.365	0.402	0.221	0.206	0.197	0.197	0.179	0.535	0.574	0.492	0.546	0.404	0.96	1.05	1.08	1.14	0.91
HOP-62	0.212	0.241	0.208	0.198	0.314	0.649	0.658	0.303	0.307	0.247	0.456	0.435	0.282	0.244	0.191	0.606	0.745	0.726	0.554	0.669
IA-LM																0.406	0.294	0.268	0.196	0.106
LC-2-ad	0.834	0.72	0.842	0.893	0.791	0.907	0.888	0.525	0.812	0.357	0.957	0.979	0.657	0.777	0.356	0.536	0.456	0.498	0.0168	0.474
LCLC-97TM1	0.236	0.231	0.209	0.255	0.262	0.127	0.216	0.142	0.134	0.13	0.223	0.209	0.128	0.188	0.174	0.183	0.151	0.175	0.21	0.153
NCI-H520	0.406	0.494	0.597	0.649	0.471						0.651	0.698	0.544	0.314	0.229	0.317	0.275	0.348	0.36	0.233
NCI-H522	0.595	0.762	0.677	0.647	0.661	0.76	0.821	0.767	0.858	0.841	0.815	0.704	0.667	0.758	0.723					
NCI-H661	0.524	0.555	0.542	0.651	0.546						0.601	0.596	0.457	0.651	0.639	0.377	0.44	0.36	0.505	0.313
NCI-H1299																0.801	0.774	0.653	0.514	0.19
NCI-H1563																0.674	0.617	0.604	0.693	0.681
NCI-H1648	0.463	0.505		0.527	0.578	0.587	0.71	0.543	0.615	0.6	0.628	0.469	0.435	0.421	0.419					
NCI-H1650	0.405	0.43	0.554	0.572	0.589						0.674	0.597	0.399	0.9	0.488	0.632	0.484	0.527	0.533	0.558
NCI-H1703						0.144	0.173	0.118	0.142	0.103						0.256	0.245	0.234	0.213	0.209
NCI-H2009	0.379	0.366	0.394	0.397	0.3						0.294	0.276	0.274	0.243	0.197	0.949	0.77	0.719	0.633	0.318
NCI-H2023	0.204	0.188	0.232	0.248	0.281						0.595	0.636	0.367	0.523	0.308	0.271	0.199	0.221	0.235	0.153
NCI-H2228											0.612	0.251		0.417	0.252	0.395	0.356	0.448	0.468	0.225
NCI-H2342	0.714	0.69	0.793	0.891	0.795	0.512	0.415	0.399	0.505	0.429	0.891	0.768	0.751	0.756	0.712					
SK-LU-1	0.653	0.607	0.652	0.604	0.536						0.52	0.485	0.412	0.446	0.371	0.543	0.544	0.604	0.576	0.343
SK-MES-1	0.395	0.337	0.332	0.395	0.304						0.558	0.581	0.491	0.503	0.305	0.345	0.332	0.291	0.308	0.23
SW 900	0.479	0.47	0.472	0.534	0.498	0.65	0.57		0.818	0.832	0.759	0.789		0.899	1.15					
SW 1573	0.653	0.497	0.473	0.372	0.26						0.577	0.645		0.545	0.61	0.6	0.414	0.47	0.402	0.368
